Results taken from patent publication US8481564B2, “Inhibitors of c-fms kinase” (Janssen Pharmaceutica, N.V., priority 2006, dated 2013).
pIC50: −log10 of the molar value.

Columns and labels:
[1] = tested on: mouse bone-marrow derived macrophages; experiment: CSF-1-driven mouse bone-marrow derived macrophages assay (BrDU incorporation); assay type: cell-based; conditions: BMDM; CSF-1 stimulated mouse bone-marrow derived macrophages, 30 hrs culture, BrDU incorporation ELISA; read-out: mCSF driven proliferation BMDM (Mouse)
Description: CSF-1-Driven Mouse Bone-Marrow Derived Macrophages Assay
Macrophages are derived by culturing mouse bone marrow in alpha-MEM supplemented with 10% FCS (fetal calf serum) and 50 ng/ml recombinant mouse CSF-1 in bacteriologic dishes. On the sixth day, macrophages are detached from dishes, washed, and resuspended to 0.1 million cells/ml in alpha-MEM containing 10% FCS. One hundred ul of cell suspension are distributed per well into 96 well culture plates. Wells are further supplemented with the addition of 50 ul media containing 15 ng/ml CSF-1, 3 uM Indomethacin, and 3× of a dilution series of test compounds. The cells are cultured for 30 hrs at 37° C. and 5% CO2. During the final six hours, cultures are supplemented with an additional 30 ul of media containing a 1:500 dilution of bromodeoxyuridine (BrDU). At the end of the culture period, the media is removed and replaced with […] of fixative solution for 30′@room temperature. The fixative is then dispelled from the plates and the plates allowed to air dry. Incorporation of BrDU into the fixed, dried cells is quantified using a specific ELISA (Cat X1327K) from Exalpha Corporation (Watertown Mass.). Background values are determined from wells without BrDU reagent. IC50 values are calculated based on signal from CSF-1 stimulated cells without compound present.

CSF-1R = CSF-1R (Homo sapiens (Human), UniProt P07333); experiment: Fluorescence polarization competition immunoassay (inhibition of CSF-1R phosphorylation of tyrosine on synthetic CSF-1R555-568 peptide); assay type: biochemical; conditions: CSF-1R fluorescence polarization assay; 0.7 nM CSF-1R, 1 mM ATP, 308 μM peptide; mean of at least three determinations
Sequence of CSF-1R (P07333 20-972): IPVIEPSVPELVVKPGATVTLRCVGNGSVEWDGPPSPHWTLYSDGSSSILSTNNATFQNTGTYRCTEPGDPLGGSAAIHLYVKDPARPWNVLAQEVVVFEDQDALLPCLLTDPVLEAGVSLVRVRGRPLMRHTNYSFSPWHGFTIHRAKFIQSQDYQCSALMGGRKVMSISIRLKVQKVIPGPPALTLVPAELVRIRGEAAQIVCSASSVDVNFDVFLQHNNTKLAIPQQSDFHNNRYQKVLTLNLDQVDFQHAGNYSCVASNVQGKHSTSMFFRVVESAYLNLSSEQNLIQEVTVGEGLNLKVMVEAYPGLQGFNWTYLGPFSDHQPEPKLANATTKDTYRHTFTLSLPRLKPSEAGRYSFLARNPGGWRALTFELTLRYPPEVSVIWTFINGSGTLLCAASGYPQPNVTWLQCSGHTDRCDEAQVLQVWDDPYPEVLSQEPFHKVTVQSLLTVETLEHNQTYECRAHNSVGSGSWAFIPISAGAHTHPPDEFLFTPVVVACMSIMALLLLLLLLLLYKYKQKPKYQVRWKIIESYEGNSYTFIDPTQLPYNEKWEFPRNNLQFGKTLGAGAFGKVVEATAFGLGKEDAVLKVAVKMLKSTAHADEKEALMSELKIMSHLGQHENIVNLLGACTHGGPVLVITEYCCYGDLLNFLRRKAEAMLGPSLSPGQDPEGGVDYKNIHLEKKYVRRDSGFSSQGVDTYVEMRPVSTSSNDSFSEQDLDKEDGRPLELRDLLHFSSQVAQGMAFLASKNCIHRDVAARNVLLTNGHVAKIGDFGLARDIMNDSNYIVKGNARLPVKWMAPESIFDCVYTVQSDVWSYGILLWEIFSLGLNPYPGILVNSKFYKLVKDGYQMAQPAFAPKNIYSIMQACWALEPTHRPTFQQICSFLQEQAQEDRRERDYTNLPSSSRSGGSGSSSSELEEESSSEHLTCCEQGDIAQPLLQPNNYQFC
Description: Fluorescence Polarization Competition Immunoassay
The kinase reaction was initiated by adding 1 μL of 10 mM ATP in assay buffer. […] Positive and negative control wells were included on each plate, where 4% DMSO in assay buffer was substituted for the compound; in addition, positive control wells received 1.2 μL of 50 mM EDTA before the start of the reaction.
The plates were covered and incubated at room temperature for 80 min. Reactions were stopped by addition of 1.2 μL of 50 mM EDTA. […] The plates were covered, incubated for 30 min at room temperature, and the fluorescence polarization was read on an Analyst plate reader (Molecular Devices). […] Reported IC50 values are the mean of three of at least three determinations.

pIC50 (CSF-1R)	SMILES	pIC50 [1]
	N#Cc1c[nH]c(C(=O)Nc2ccc(C3CNS(=O)(=O)NC3)cc2C2=CCCCC2)n1 [Example 5, 4-Cyano-1H-imidazole-2-carboxylic acid [2-cyclohex-1-enyl-4-(1,1-dioxo-1λ^6-[1,2,6]thiadiazinan-4-yl)-phenyl]-amide]	7.22
8.00	N#Cc1c[nH]c(C(=O)Nc2cc(CO)c(C3CNS(=O)(=O)NC3)cc2C2=CCCCC2)n1 [Example 6, 4-Cyano-1H-imidazole-2-carboxylic acid [2-cyclohex-1-enyl-4-(1,1-dioxo-1λ^6-[1,2,6]thiadiazinan-4-yl)-5-hydroxymethyl-phenyl]-amide]	7.22
	CN1CC(c2ccc(NC(=O)c3nc(C#N)c[nH]3)c(C3=CCCCCC3)c2)CN(C)C1=O [Example 9, 4-Cyano-1H-imidazole-2-carboxylic acid [2-cyclohept-1-enyl-4-(1,3-dimethyl-2-oxo-hexahydro-pyrimidin-5-yl)-phenyl]-amide]	8.30
< 6.52	N#Cc1c[nH]c(C(=O)Nc2ccc(C3COC(=O)OC3)cc2C2=CCCCC2)n1 [Example 15, 4-Cyano-1H-imidazole-2-carboxylic acid[2-cyclohex-1-enyl-4-(2-oxo-[1,3]dioxan-5-yl)-phenyl]-amide]	
	CC1(C)CC=C(c2cc(C3CC(=O)NC(=O)C3)ccc2NC(=O)c2nc(C#N)c[nH]2)CC1 [Example 3, 4-Cyano-1H-imidazole-2-carboxylic acid [2-(4,4-dimethyl-cyclohex-1-enyl)-4-(2,6-dioxo-piperidin-4-yl)-phenyl]-amide]	8.15
	CN1CC(c2ccc(NC(=O)c3cc(C#N)c[nH]3)c(C3=CCCCCC3)c2)CN(C)C1=O [Example 10, 4-Cyano-1H-pyrrole-2-carboxylic acid [2-cyclohept-1-enyl-4-(1,3-dimethyl-2-oxo-hexahydro-pyrimidin-5-yl)-phenyl]-amide]	7.00
	N#Cc1c[nH]c(C(=O)Nc2ccc(C3CC(=O)NC(=O)C3)cc2C2=CCCCC2)n1 [Example 1, 4-Cyano-1H-imidazole-2-carboxylic acid [2-cyclohex-1-enyl-4-(2,6-dioxo-piperidin-4-yl)-phenyl]-amide]	8.00
	CN1CC(c2ccc(NC(=O)c3nc(C#N)c[nH]3)c(C3=CCC(C)(C)CC3)c2)CN(C)C1=O [Example 8, 4-Cyano-1H-imidazole-2-carboxylic acid [2-(4,4-dimethyl-cyclohex-1-enyl)-4-(1,3-dimethyl-2-oxo-hexahydro-pyrimidin-5-yl)-phenyl]-amide]	8.52
	CN1CC(c2ccc(NC(=O)c3nc(C#N)c[nH]3)c(C3=CCCCC3)c2)CN(C)S1(=O)=O [Example 11, 4-Cyano-1H-imidazole-2-carboxylic acid [2-cyclohex-1-enyl-4-(2,6-dimethyl-1,1-dioxo-1λ^6-[1,2,6]thiadiazinan-4-yl)-phenyl]-amide]	8.70
8.52	N#CN=C1NCC(c2ccc(NC(=O)c3nc(C#N)c[nH]3)c(C3=CCCCC3)c2)CN1 (stereo not drawn) [Example 12, 4-Cyano-1H-imidazole-2-carboxylic acid[4-(2-cyanoimino-hexahydro-pyrimidin-5-yl)-2-cyclohex-1-enyl-phenyl]-amide]	7.40
	CN1C(=O)CC(c2ccc(NC(=O)c3nc(C#N)c[nH]3)c(C3=CCCCC3)c2)CC1=O [Example 14, 4-Cyano-1H-imidazole-2-carboxylic acid[2-cyclohex-1-enyl-4-(1-methyl-2,6-dioxo-piperidin-4-yl)-phenyl]-amide]	8.40
8.70	CS(=O)(=O)N=C1NCC(c2ccc(NC(=O)c3nc(C#N)c[nH]3)c(C3=CCCCC3)c2)CN1 (stereo not drawn) [Example 13, 4-Cyano-1H-imidazole-2-carboxylic acid[2-cyclohex-1-enyl-4(2methanesulfonylimino-hexahydro-pyrimidin-5-yl)-phenyl]-amide]	7.00
